Results as given in PMC12064818, “A general assay platform to study protein pharmacology using ligand-dependent structural dynamics” (Nature Communications, 2025).
Counter-ions that a name gives are not always drawn. Like-named read-outs stand apart in the source and are kept apart here.

How the values were obtained:
PKA = details: cited from earlier work
PKA-N-HiBiT = PKA-N-HiBiT (Homo sapiens, UniProt P17612); assay: SDR assay, PKA-N-HiBiT
[1] = target: T1, ABL1-N-HiBiT kinase domain (Homo sapiens, UniProt P00519); assay: SDR assay, ABL1-N-HiBiT; details: for ABL1 SDR pSDR50: heatmap data, 128 kinase inhibitors; for EC50: read-out: SDR Ave SDR50, unit inferred
T1 sequence (P00519 233-500): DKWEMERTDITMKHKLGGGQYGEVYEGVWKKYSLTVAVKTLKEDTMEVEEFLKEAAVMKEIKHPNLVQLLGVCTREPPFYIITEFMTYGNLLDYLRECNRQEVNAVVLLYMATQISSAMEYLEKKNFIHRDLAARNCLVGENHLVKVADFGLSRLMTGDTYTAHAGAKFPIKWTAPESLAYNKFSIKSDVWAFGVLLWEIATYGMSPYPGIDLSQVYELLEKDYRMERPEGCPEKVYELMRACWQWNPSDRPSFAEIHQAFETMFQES

[2] = annotation yes/no for kinase library compound, source not given
[3] = PKA-N-HiBiT qHTS, SDR assay, average maximal response
[4] = ABL1-N-HiBiT qHTS, average maximal SDR response
[5] = read-out: PKA SDR Ave SDR50, PKA-N-HiBiT qHTS, SDR assay, average
[6] = ABL1-N-HiBiT qHTS, SDR assay, average maximal response

Compound	SDR Ave Max Response (PKA-N-HiBiT; [3])	SDR Ave Max Response [1, 4]	Annotated PKA activity (PKA; [2])	further results
O=C(Nc1ccc(OC(F)(F)F)cc1)c1sccc1NCc1ccnc2ccccc12 [OSI-930]	9.10	17.46	no	ABL1 SDR pSDR50 [1]: 5.04; EC50 ([1]; ABL1-N-HiBiT qHTS, average): 9.38 µM
Cc1ccc(NC(=O)N2CCN(c3nc(N)nc4sc(-c5cccnc5)nc34)CC2)cc1 [PI4KIII beta inhibitor 3]	3.67	18.89	no	SDR Ave pSDR50 ([1]; ABL1-N-HiBiT qHTS, average): 4.83; EC50 ([1]; ABL1-N-HiBiT qHTS, average): 14.9 µM
Cc1cc(-c2cc(O)ccc2Cl)cc2nnc(Nc3ccc(OCCN4CCCC4)cc3)nc12 [TG 100572 HCl]	-13.83		no	
COc1cc2c(Oc3ccc(NC(=O)C4(C(=O)Nc5ccc(F)cc5)CC4)cc3F)ccnc2cc1OCCCN1CCOCC1 [Foretinib]			no	
CO[C@@H](C(=O)N1Cc2n[nH]c(NC(=O)c3ccc(N4CCN(C)CC4)cc3)c2C1)c1ccccc1 [Danusertib]	4.52		no	
FC(F)(F)c1ccc(/C=C/c2nc(COc3ccc(CCCCn4ccnn4)cc3)co2)cc1 [Mubritinib]				Annotated PKA activity (PKA): no; SDR Ave Max Response (PKA-N-HiBiT): 6.74; SDR Ave Max Response [1]: 1.25
Mps1-IN-3	14.72	66.03	no	ABL1 SDR pSDR50 [1]: 4.80
CNC(=O)c1ccccc1Sc1ccc2c(/C=C/c3ccccn3)n[nH]c2c1 [Axitinib]	-3.36		no	
CSc1cccc(Nc2ncc3cc(-c4c(Cl)cccc4Cl)c(=O)n(C)c3n2)c1 [PD-173955]			no	
COc1cc(NC(=O)c2cccc(-n3cc(NC(=O)Nc4cccc(C)c4)cn3)c2)cc(OC)c1OC [SR 3576]	1.20	6.18	no	
Nc1nc(NCCNc2ncc(-n3ccnc3)c(-c3ccc(Cl)cc3Cl)n2)ccc1[N+](=O)[O-] [CT-98014]		-28.48		Annotated PKA activity (PKA): no; EC50 (PKA-N-HiBiT): 11.7 µM; SDR Ave Max Response (PKA-N-HiBiT): -28.99; EC50 (PKA-N-HiBiT; read-out: PKA SDR Ave SDR50): 12.9 µM; ABL1 SDR pSDR50 [1]: 4.54; EC50 ([1]; ABL1-N-HiBiT qHTS, average): 33.8 µM
TAE-684	28.42		no	EC50 (PKA-N-HiBiT; [5]): 9.6 µM
Cc1ccc(C(=O)Nc2ccc(Oc3cc4cnn(C)c4cc3-c3cn[nH]c3)c(F)c2)c(=O)n1-c1ccc(F)cc1 [Merestinib]	8.78	22.76	no	
Indirubin	5.53		no	SDR Ave Max Response [1]: 2.52
COc1cc2ncnc(Nc3ccc(F)c(Cl)c3)c2cc1OCCCN1CCOCC1 [Gefitinib]			no	
Cn1sc(=O)n(Cc2ccccc2)c1=O [TDZD 8]	1.44	-3.85	no	
PHT-427	-6.93	10.06	no	
Cc1cc(F)ccc1-c1nc(NCCNC(=N)NC#N)nc2c1ccc(=O)n2-c1c(F)cccc1F [SB 706504]	3.70	3.05	no	
O=C(NOCC(O)CO)c1cc(Br)c(F)c(F)c1Nc1ccc(I)cc1F (stereo not shown) [PD-318088]	-21.34	-2.26	no	PKA SDR Ave pSDR50 (PKA-N-HiBiT; PKA-N-HiBiT qHTS, SDR assay, average): 4.33; EC50 (PKA-N-HiBiT; [5]): 62 µM
Cc1ccc(NC(=O)c2ccc(CN3CCN(C)CC3)cc2)cc1Nc1nc(-c2cccnc2)cs1 [Masitinib]			no	

Compound	SDR Ave Max Response (PKA-N-HiBiT; [3])	SDR Ave Max Response [1, 4]	Annotated PKA activity (PKA; [2])	further results
Cc1cc(F)ccc1-c1nc(NC(CO)CO)nc2c1ccc(=O)n2-c1c(F)cccc1F [Dilmapimod]	3.69		no	SDR Ave Max Response [1, 6]: -3.68
N#Cc1ccc2ncnc(NCCc3ccccc3)c2c1 [Senexin A]	-4.85	-0.36	no	
COc1ccc2c(Oc3ccc(NC(=O)c4c(C)n(CC(C)(C)O)n(-c5ccccc5)c4=O)nc3)ccnc2c1 [AMG-458]		38.29	yes	EC50 (PKA-N-HiBiT): 10.7 µM; SDR Ave Max Response (PKA-N-HiBiT): -17.61; EC50 (PKA-N-HiBiT; read-out: PKA SDR Ave SDR50): 10.7 µM
Cc1nc2ccc(-n3ncc(C(=O)c4cc5ccccc5[nH]4)c3N)cc2[nH]1 [CH-5183284]	4.01	37.79	no	ABL1 SDR pSDR50 [1]: 5.61; EC50 ([1]; ABL1-N-HiBiT qHTS, average): 2.51 µM
COc1cc2c(cc1OC)-c1[nH]nc(Nc3cccc(F)c3)c1C2 [PDGF RTK inhibitor IV]	5.85		no	
S=C(NCc1ccc2c(c1)OCO2)N1CCN(c2ncnc3c2oc2ccccc23)CC1 [Amuvatinib]	-0.36	8.96	no	
C=CC(=O)N1CCC(Oc2cc3c(Nc4ccc(Cl)c(Cl)c4F)ncnc3cc2OC)CC1 [Poziotinib]	8.47	56.26	no	ABL1 SDR pSDR50 [1]: 4.03
Nc1ncccc1-c1nc2ccc(-c3ccccc3)nc2n1-c1ccc(C2(N)CCC2)cc1 [Miransertib]			no	
PHA-665752			no	
CCN1C(=O)CNc2ncc(-c3ccc(-c4nc[nH]n4)nc3C)nc21 [CC-115]	-2.34		no	SDR Ave Max Response [1, 6]: 31.14
O=C(NC1CCNCC1)c1n[nH]cc1NC(=O)c1c(Cl)cccc1Cl [AT-7519]	-18.47	9.60	no	
COc1ccc(-n2c(SCC#N)nc3sc4c(c3c2=O)CCCC4)cc1 [Necrostatin-5]	1.51		no	SDR Ave Max Response [1]: -3.84
Tozasertib			no	SDR Ave Max Response (PKA-N-HiBiT): -1.35
C=CC(=O)Nc1cc2c(Nc3ccc(F)c(Cl)c3)ncnc2cc1OCCCN1CCOCC1 [Canertinib]			no	
CN1CCN(CCOc2cc(OC3CCOCC3)c3c(Nc4c(Cl)ccc5c4OCO5)ncnc3c2)CC1 [Saracatinib]	3.81		no	
Cc1cc(C)c(/C=C2\C(=O)Nc3ccccc32)[nH]1 [Semaxanib]			no	
CN[C@@H]1C[C@H]2O[C@@](C)([C@@H]1OC)n1c3ccccc3c3c4c(c5c6ccccc6n2c5c31)C(=O)NC4 [staurosporine, reference compound]			yes	
CCN1CCN(Cc2ccc(NC(=O)Nc3ccc(Oc4cc(NC)ncn4)cc3)cc2C(F)(F)F)CC1 [AST-487]			yes	
CC(C)n1nc(-c2cc3cc(O)ccc3[nH]2)c2c(N)ncnc21 [PP 242]				Annotated PKA activity (PKA): yes
Cc1cc(Nc2ncc3cc(-c4c(Cl)cccc4Cl)c(=O)n(C)c3n2)ccc1F [PD 180970]	-17.64		no	

Continued, in another order:

SDR Ave Max Response (PKA-N-HiBiT; [3])	SDR Ave Max Response [1, 4]	Compound	Annotated PKA activity (PKA; [2])	further results
-6.66		Cc1cc(NC(=O)c2ccc(C)c(Nc3nccc(-c4cccnc4)n3)c2)cc(-n2cnc(C)c2)c1 [NSC762948]	no	
3.01	9.81	C=CC(=O)Nc1cccc(Oc2nc(Nc3ccc(N4CCN(C)CC4)cc3OC)ncc2Cl)c1 [WZ4002]	no	
-2.90	-19.98	CN1CCN(CCCNc2ncc(Cl)c(-c3cc4c(C(=O)NC5CC5)cccc4s3)n2)CC1 [LY-2409881]	no	ABL1 SDR pSDR50 [1]: 5.21; EC50 ([1]; ABL1-N-HiBiT qHTS, average): 7.98 µM
-12.03	100.16	CN1CCN([C@H]2CC[C@H](n3cc(-c4ccc(Oc5ccccc5)cc4)c4c(N)ncnc43)CC2)CC1 [A-419259]	no	
-4.54	-23.55	C[C@@H]1CN(CC(=O)Nc2ccc3c(c2)Cc2cccc(-c4cc(=O)cc(N5CCOCC5)o4)c2S3)C[C@H](C)O1 [KU-60019]	no	
35.28	52.23	N#Cc1cccc(-c2c[nH]c3ncnc(N4CCOCC4)c23)c1 [PF-06447475]	no	EC50 (PKA-N-HiBiT): 19.5 µM; EC50 (PKA-N-HiBiT; [5]): 20.8 µM; ABL1 SDR pSDR50 [1]: 4.46; EC50 ([1]; ABL1-N-HiBiT qHTS, average): 35.5 µM
2.67		C/N=c1\ncc2cc(-c3cc(NC(=O)NCCC(C)(C)C)c(F)cc3C)c(C)nc2[nH]1 [LY-3009120]	no	
-15.93		Cc1cn(-c2cc(F)cc(NC(=O)c3ccc(C)c(Nc4nccc(-c5cccnc5)n4)c3)c2)cn1 [NSC762950]	no	
-2.45		Cc1cn(-c2cccc(NC(=O)c3ccc(C)c(Nc4nccc(-c5cccnc5)n4)c3)c2)cn1 [NSC762949]	no	
